# Reference: patent publication US20230226259A1, “NANOFIBER CARDIAC PATCH AND METHODS OF USE THEREOF” (Ohio State Innovation Foundation, priority 2020, published 2023)
# Legend:
# COVID-19 patients = conditions: cited from earlier work
# [1] = test system: hiPSC-CMs cultured on aligned coaxial patches; assay: Particle image velocimetry (PIV) optical contractility of aligned coaxial cardiac patch; format: cell-based, human; conditions: 100 nM, patches at two weeks of culture
# Procedure: Cross-correlation (“PIV”) analysis of images. Cell contractility kinetics were assessed using the optical flow/PIV method. Briefly, a motion pattern (velocity field) captured on a pair of images was calculated by dividing the first image into overlapping tiles, each 64 pixels wide. The second image was then scanned pixel-by-pixel, by shifting an equally sized (64×64 pixels) window. The most similar (by Euclidean distance) tile on the second image was then assumed to be the location where the pattern in the first image moved. The resulting displacement vectors characterizing each image tile were then interpolated and denoised by a thin-plate spline fit, yielding a coarse displacement field. The coarse estimate was used to construct a second, higher resolution displacement field. […] Fourier spectra were calculated from D(t) beat patterns using the discrete Fourier transform algorithm. Power densities were calculated as the magnitudes of the squared Fourier spectra, and indicate periodicity within the signal in the form of peaks at the corresponding frequencies. When the analyzed signal is not a pure sine wave, harmonics are expected to appear at integer multiples of the fundamental frequency f(2f, 3f, etc). […]
# hiPSC-CMs = assay: Multi-electrode array (MEA) field potentials of hiPSC-CMs cultured in 2-D or on aligned coaxial patches (3-D) after cardiac drugs; format: cell-based, human; conditions: for beating frequency (beats per minute): change after treatment
# fertilized chicken eggs = assay: In ovo CAM assay; format: in vivo; conditions: in Geltrex carrier, 5 days
# Procedure: The angiogenic potential of bFGF loaded PDA-NPs and DPDA-NPs was evaluated by using fertilized chicken eggs. The eggs were incubated in a hatching incubator for 5 days, following the incubation the viable eggs were selected and grouped as follows (bFGF+Geltrex, bFGF-PDA-NPs+Geltrex, bFGF-DPDA-NPs+Geltrex and only Geltrex). A window was made on the eggshell and a sterilized nylon mesh was placed inside the egg. The test samples were loaded on the nylon mesh and the window was covered by placing a 35 mm plate and secured by using tape. The eggs were further incubated for 5 days, following which it was carefully dissected to retrieve the nylon mesh and imaged using a stereomicroscope (Leica).
molecule,measurement,setting,value
"CCN(CCO)CCCC(C)Nc1ccnc2cc(Cl)ccc12 (stereo not shown) [HCQ, hydroxychloroquine]",QT interval,COVID-19 patients; COVID-19 / SARS-CoV-2 patients,QT prolongation
same,association between treatment and consequent intubation or death,COVID-19 patients; New York study (Geleris et al),no significant association
same,recovery of patients,"COVID-19 patients; randomized clinical trial, administration for 5 days",improved recovery
same,cell death,hiCMs,increased
same,cell viability,hiCMs,decreased
same,electrophysiological function (MEA and patch clamp),hiCMs,considerable changes
"CC(C)NCC(O)c1ccc(O)c(O)c1 (stereo not shown) [ISO, Isoproterenol]",spontaneous beat amplitude (beat patterns),[1],increase
same,average frequency of spontaneous beating,"[1]; mean +- SEM, untreated 0.136 Hz",1.497+−0.0394 Hz
same,beat period,"hiPSC-CMs; 2-D culture, 10 nM ISO",0.67 ± 0.04 s
same,beat period,"hiPSC-CMs; 2-D culture, 100 nM ISO",0.66 ± 0.03 s
same,beat period,"hiPSC-CMs; 3-D culture (aligned coaxial patch), 10 nM ISO",0.8 ± 0.15 s
same,beat period,"hiPSC-CMs; 3-D culture (aligned coaxial patch), 100 nM ISO",0.66 ± 0.1 s
same,"Fridericia-corrected field potential duration (FPDc), change vs baseline",hiPSC-CMs; both 2-D and 3-D cultures,dose-dependent shortening of the QT interval
same,"beat period, change vs baseline",hiPSC-CMs; both 2-D and 3-D cultures,significant dose-dependent decrease
same,beating frequency (beats per minute),hiPSC-CMs; both 2-D and 3-D cultures,increase
COc1ccc(CCN(C)CCCC(C#N)(c2ccc(OC)c(OC)c2)C(C)C)cc1OC (stereo not shown) [Verapamil],"FPDc, change with dose","hiPSC-CMs; 3-D culture only, 0.1 μM and 0.3 μM",dose-dependent decrease
same,"beat period, change vs baseline",hiPSC-CMs; both 2-D and 3-D cultures,significant fold decrease
same,beating frequency (beats per minute),hiPSC-CMs; both 2-D and 3-D cultures,increase
bFGF: basic fibroblast growth factor,new blood vessel formation on nylon mesh,fertilized chicken eggs,remarkable angiogenesis
